Reference: patent US20260109712A1, “RIFAMYCINS FOR NONTUBERCULOUS MYCOBACTERIA” (priority 2022, published 2026)
Converted amounts (≈) assume the structure as drawn.

Legend:
[1] = tested on: M. abscessus ATCC 19977; assay: MIC assay in 96-well plate format, wild-type strain; type: cell-based, Mycobacterium abscessus; settings: for MICWT: Table 10; for MIC: Table 15, heterocyclic aromatic carbamates, read-out: WT Mab MIC
Description: (§1) MIC determination was carried out in 96-well plate format as previously described.^[13-14] 96-well plates were initially set up with 100 μL of 7H9 per well. For each compound, a ten-point two-fold dilution series starting at twice the desired highest concentration was dispensed onto the 96-well plates using a Tecan D300e Digital Dispenser, with the DMSO concentration normalized to 2%. M. abscessus culture grown to mid-log phase (OD600=0.4-0.6) was diluted to OD600=0.1 (1×10^7 CFU/mL). […] Untreated control wells are included on each plate that contain bacteria suspension and 1% DMSO. Plates were sealed with parafilm, stored in boxes with wet paper towels and incubated at 37° C. with shaking (110 RPM). Plates were incubated for 3 days. To determine growth, OD600 was measured using a Tecan Infinite M200 plate reader on Day 0 and Day 3. Two biological replicates were performed. Clarithromycin was included in each experiment as a positive control.
(§2) For each well on the 96-well plate, bacterial growth was calculated by subtracting the Day 0 OD600 value from the Day 3 OD600 value. […] For compound-containing wells, percentage growth was calculated by dividing their growth values by the average drug-free bacterial growth for the compound series and multiplying by 100. For each compound series, we plotted percentage growth versus compound concentration.

[2] = tested on: Δarr M. abscessus; assay: MIC assay, isogenic arr-deleted strain; type: cell-based, Mycobacterium abscessus; settings: Table 10
Description: as §1, §2

[3] = Plasma protein binding assay (rapid equilibrium dialysis); type: in vitro ADME
Description: DMSO stocks were spiked into plasma to a concentration of 10,000 ng/mL. 200 μL of spiked plasma was pipetted into the sample chamber of the rapid equilibrium dialysis (RED) cartridge. 350 μL of PBS was added to the adjacent cartridge. The plate containing the RED was sealed and incubated at 37° C. on the thermomixer at 300 RPM for 4 h. After incubation, 50 μL aliquots of plasma were removed and added to 50 μL of blank plasma in a deep well plate (1:1). Similarly, 50 μL aliquots of PBS were removed and added to 50 μL of blank plasma. This created an identical matrix between buffer and non-buffer samples. Samples were processed and quantified as specified in the LC-MS/MS analytical method.

Row | Structure (SMILES) | MICWT [1] | MICΔorr [2] | plasma unbound fraction ([3]; Table 10) | MIC [1] | ƒu [3] | plasma unbound fraction ([3]; plasma)
1 | CO[C@H]1/C=C/O[C@@]2(C)Oc3c(C)c(O)c4c(c3C2=O)C2=NC3(CCN(CC(C)C)CC3)NC2=C(NC(=O)/C(C)=C/C=C/[C@H](C)[C@H](O)[C@@H](C)[C@@H](O)[C@@H](C)[C@H](OC(=O)c2ccccc2F)[C@@H]1C)C4=O [UMN23] | 0.06 µM | 0.058 µM | 0.05% |  |  | 
2 | CO[C@H]1/C=C/O[C@@]2(C)Oc3c(C)c(O)c4c(c3C2=O)C2=NC3(CCN(CC(C)C)CC3)NC2=C(NC(=O)/C(C)=C/C=C/[C@H](C)[C@H](O)[C@@H](C)[C@@H](O)[C@@H](C)[C@H](OC(=O)c2ccccc2Cl)[C@@H]1C)C4=O [UMN24] | 0.043 µM | 0.049 µM | 0.06% |  |  | 
3 | COc1ccccc1C(=O)O[C@H]1[C@H](C)[C@H](O)[C@H](C)[C@@H](O)[C@@H](C)/C=C/C=C(\C)C(=O)NC2=C3NC4(CCN(CC(C)C)CC4)N=C3c3c(c(O)c(C)c4c3C(=O)[C@@](C)(O/C=C/[C@H](OC)[C@H]1C)O4)C2=O [UMN29] | 0.03 µM | 0.03 µM | 0.22% |  |  | 
4 | CO[C@H]1/C=C/O[C@@]2(C)Oc3c(C)c(O)c4c(c3C2=O)C2=NC3(CCN(CC(C)C)CC3)NC2=C(NC(=O)/C(C)=C/C=C/[C@H](C)[C@H](O)[C@@H](C)[C@@H](O)[C@@H](C)[C@H](OC(=O)Nc2cccc(C)c2)[C@@H]1C)C4=O [UMN35] | 0.034 µM | 0.036 µM | 0.05% |  |  | 
5 | CO[C@H]1/C=C/O[C@@]2(C)Oc3c(C)c(O)c4c(c3C2=O)C2=NC3(CCN(CC(C)C)CC3)NC2=C(NC(=O)/C(C)=C/C=C/[C@H](C)[C@H](O)[C@@H](C)[C@@H](O)[C@@H](C)[C@H](OC(=O)Nc2ccccc2-c2ccccc2)[C@@H]1C)C4=O [UMN36] | 0.035 µM | 0.05 µM |  | 0.035 µM (≈ 0.035 µg/mL) | 0.02% | 0.02%
6 | COc1ccc(NC(=O)O[C@H]2[C@H](C)[C@H](O)[C@H](C)[C@@H](O)[C@@H](C)/C=C/C=C(\C)C(=O)NC3=C4NC5(CCN(CC(C)C)CC5)N=C4c4c(c(O)c(C)c5c4C(=O)[C@@](C)(O/C=C/[C@H](OC)[C@H]2C)O5)C3=O)cc1 [UMN37] | 0.031 µM | 0.034 µM | 0.15% |  |  | 
7 | CO[C@H]1/C=C/O[C@@]2(C)Oc3c(C)c(O)c4c(c3C2=O)C2=NC3(CCN(CC(C)C)CC3)NC2=C(NC(=O)/C(C)=C/C=C/[C@H](C)[C@H](O)[C@@H](C)[C@@H](O)[C@@H](C)[C@H](OC(=O)Nc2ccccc2C)[C@@H]1C)C4=O [UMN39] | 0.014 µM | 0.017 µM |  | 0.014 µM (≈ 0.0131 µg/mL) | 0.1% | 0.13%
8 | CO[C@H]1/C=C/O[C@@]2(C)Oc3c(C)c(O)c4c(c3C2=O)C2=NC3(CCN(CC(C)C)CC3)NC2=C(NC(=O)/C(C)=C/C=C/[C@H](C)[C@H](O)[C@@H](C)[C@@H](O)[C@@H](C)[C@H](OC(=O)NCc2cc(-c3ccccc3)no2)[C@@H]1C)C4=O [UMN40] | 0.035 µM | 0.03 µM | 0.12% |  |  | 
9 | COc1cccc(NC(=O)O[C@H]2[C@H](C)[C@H](O)[C@H](C)[C@@H](O)[C@@H](C)/C=C/C=C(\C)C(=O)NC3=C4NC5(CCN(CC(C)C)CC5)N=C4c4c(c(O)c(C)c5c4C(=O)[C@@](C)(O/C=C/[C@H](OC)[C@H]2C)O5)C3=O)c1 [UMN42] | 0.025 µM | 0.03 µM | 0.09% |  |  | 
10 | CO[C@H]1/C=C/O[C@@]2(C)Oc3c(C)c(O)c4c(c3C2=O)C2=NC3(CCN(CC(C)C)CC3)NC2=C(NC(=O)/C(C)=C/C=C/[C@H](C)[C@H](O)[C@@H](C)[C@@H](O)[C@@H](C)[C@H](OC(=O)Nc2ccc(C)cc2)[C@@H]1C)C4=O [UMN43] | 0.05 µM | 0.03 µM | 0.05% |  |  | 
11 | CO[C@H]1/C=C/O[C@@]2(C)Oc3c(C)c(O)c4c(c3C2=O)C2=NC3(CCN(CC(C)C)CC3)NC2=C(NC(=O)/C(C)=C/C=C/[C@H](C)[C@H](O)[C@@H](C)[C@@H](O)[C@@H](C)[C@H](OC(=O)c2nccs2)[C@@H]1C)C4=O [UMN45] | 0.017 µM | 0.017 µM | 1.89% |  |  | 
12 | CO[C@H]1/C=C/O[C@@]2(C)Oc3c(C)c(O)c4c(c3C2=O)C2=NC3(CCN(CC(C)C)CC3)NC2=C(NC(=O)/C(C)=C/C=C/[C@H](C)[C@H](O)[C@@H](C)[C@@H](O)[C@@H](C)[C@H](OC(=O)N2CCN(CC(C)C)CC2)[C@@H]1C)C4=O [UMN53] | 0.027 µM | 0.02 µM | 0.20% |  |  | 
13 | CO[C@H]1/C=C/O[C@@]2(C)Oc3c(C)c(O)c4c(c3C2=O)C2=NC3(CCN(CC(C)C)CC3)NC2=C(NC(=O)/C(C)=C/C=C/[C@H](C)[C@H](O)[C@@H](C)[C@@H](O)[C@@H](C)[C@H](OC(=O)Nc2ccncn2)[C@@H]1C)C4=O [UMN56] | 0.048 µM | 0.05 µM | 5.50% |  |  | 
14 | CO[C@H]1/C=C/O[C@@]2(C)Oc3c(C)c(O)c4c(c3C2=O)C2=NC3(CCN(CC(C)C)CC3)NC2=C(NC(=O)/C(C)=C/C=C/[C@H](C)[C@H](O)[C@@H](C)[C@@H](O)[C@@H](C)[C@H](OC(=O)N2CCN(c3ccccc3)CC2)[C@@H]1C)C4=O [UMN58] | 0.09 µM | 0.049 µM | 0.13% |  |  | 
15 | CO[C@H]1/C=C/O[C@@]2(C)Oc3c(C)c(O)c4c(c3C2=O)C2=NC3(CCN(CC(C)C)CC3)NC2=C(NC(=O)/C(C)=C/C=C/[C@H](C)[C@H](O)[C@@H](C)[C@@H](O)[C@@H](C)[C@H](OC(=O)N2CCCC2(C)C)[C@@H]1C)C4=O [UMN61] | 0.08 µM | 0.052 µM | 0.17% |  |  | 
16 | CO[C@H]1/C=C/O[C@@]2(C)Oc3c(C)c(O)c4c(c3C2=O)C2=NC3(CCN(CC(C)C)CC3)NC2=C(NC(=O)/C(C)=C/C=C/[C@H](C)[C@H](O)[C@@H](C)[C@@H](O)[C@@H](C)[C@H](OC(=O)N2CCN(C(C)(C)C)CC2)[C@@H]1C)C4=O [UMN63] | 0.077 µM | 0.043 µM | 3.60% |  |  | 
17 | CO[C@H]1/C=C/O[C@@]2(C)Oc3c(C)c(O)c4c(c3C2=O)C2=NC3(CCN(CC(C)C)CC3)NC2=C(NC(=O)/C(C)=C/C=C/[C@H](C)[C@H](O)[C@@H](C)[C@@H](O)[C@@H](C)[C@H](OC(=O)Nc2cccnn2)[C@@H]1C)C4=O [UMN64] | 0.032 µM | 0.034 µM | 4.15% |  |  | 
18 | CO[C@H]1/C=C/O[C@@]2(C)Oc3c(C)c(O)c4c(c3C2=O)C2=NC3(CCN(CC(C)C)CC3)NC2=C(NC(=O)/C(C)=C/C=C/[C@H](C)[C@H](O)[C@@H](C)[C@@H](O)[C@@H](C)[C@H](OC(=O)Nc2cccnc2)[C@@H]1C)C4=O [UMN67] | 0.025 µM | 0.025 µM | 1.75% |  |  | 
19 | COC1C=COC2(C)Oc3c(C)c(O)c4c(c3C2=O)C2=NC3(CCN(CC(C)C)CC3)NC2=C(NC(=O)C(C)=CC=CC(C)C(O)C(C)C(O)C(C)C(OC(=O)N2CCOC(C)C2)C1C)C4=O (stereo not shown) [UMN68] | 0.061 µM | 0.033 µM | 2.40% |  |  | 
20 | COC1C=COC2(C)Oc3c(C)c(O)c4c(c3C2=O)C2=NC3(CCN(CC(C)C)CC3)NC2=C(NC(=O)C(C)=CC=CC(C)C(O)C(C)C(O)C(C)C(OC(=O)N2CCOC(C)C2)C1C)C4=O (stereo not shown) [UMN70] | 0.08 µM | 0.026 µM | 0.56% |  |  | 
21 | CO[C@H]1/C=C/O[C@@]2(C)Oc3c(C)c(O)c4c(c3C2=O)C2=NC3(CCN(CC(C)C)CC3)NC2=C(NC(=O)/C(C)=C/C=C/[C@H](C)[C@H](O)[C@@H](C)[C@@H](O)[C@@H](C)[C@H](OC(=O)N2CCNCC2)[C@@H]1C)C4=O [UMN86] | 0.11 µM | 0.10 µM |  |  |  | 
22 | CO[C@H]1/C=C/O[C@@]2(C)Oc3c(C)c(O)c4c(c3C2=O)C2=NC3(CCN(CC(C)C)CC3)NC2=C(NC(=O)/C(C)=C/C=C/[C@H](C)[C@H](O)[C@@H](C)[C@@H](O)[C@@H](C)[C@H](OC(=O)NC2CC(C)(C)N(Cc3ccccc3)C(C)(C)C2)[C@@H]1C)C4=O [UMN87] | 0.23 µM | 0.30 µM |  |  |  | 
23 | CO[C@H]1/C=C/O[C@@]2(C)Oc3c(C)c(O)c4c(c3C2=O)C2=NC3(CCN(CC(C)C)CC3)NC2=C(NC(=O)/C(C)=C/C=C/[C@H](C)[C@H](O)[C@@H](C)[C@@H](O)[C@@H](C)[C@H](OC(=O)NC2CC(C)(C)N(C)C(C)(C)C2)[C@@H]1C)C4=O [UMN91] | 0.11 µM | 0.10 µM |  |  |  | 
